Data reported in patent US6350917B1, “α-crystal of cyclopentenone” (Takara Shuzo Co., Ltd., priority 1997, dated 2002).

Assay: Thermostability: quantitative determination of the cyclopentenone (UV absorbance near 215 nm) initially and after standing at 40° C. for six days
Format: physicochemical
Conditions: for Amount of the Cyclopentenone (%) After Standing at 40° C. for six days / Amount of the Cyclopentenone (%) At Initial Stage: ratio of the cyclopentenone in the sample; for Amount of the Cyclopentenone (%) At Initial Stage: the rest being water and impurities
Experimental: In order to compare the thermostability of the freeze-dried cyclopentenone obtained in Referential Example 1 and that of the α-type crystals obtained in Example 1, quantitative determination was conducted for the cyclopentenone on the initial stage and after allowing to stand at 40° C. for six days by means of the following quantitative determination method.
Quantitative Determination Method: A sample (0.1 g) of the cyclopentenone is dissolved in 100 ml of water and 2 ml of the resulting solution are diluted to an extent of 50-fold. Absorbance (A) of this solution at the wave length of maximum absorption near the wave length of 215 nm is measured. Amount of the cyclopentenone (mg/ml) is calculated by the following formula.
Amount of the Cyclopentenone (mg/ml)=(A÷773.4)×50000

Structure (SMILES)	Amount of the Cyclopentenone (%) After Standing at 40° C. for six days [%]	Amount of the Cyclopentenone (%) At Initial Stage [%]	Thermostability compared with the freeze-dried product (40° C. for six days, in words)
O=C1C=C[C@@H](O)[C@@H]1O (relative stereo) [Freeze-Dried Product, trans-4,5-dihydroxy-2-cyclopenten-1-one, reference compound]	28.2	59.4	
O=C1C=C[C@@H](O)[C@@H]1O (relative stereo) [α-Type Crystals, trans-4,5-dihydroxy-2-cyclopenten-1-one]	95.2	96.4	significantly improved thermostability as compared with the freeze-dried product
